Assay results published in patent US20060205071A1, “Methods for ex-vivo expanding stem/progenitor cells” (priority 2003, published 2006).
Entries after “also recorded” stand apart in the source; their conditions may differ.

How the values were obtained:
[1] = tested on: Hematopoietic stem/progenitor cells isolated from umbilical cord blood; assay: Ex vivo expansion of HSC with copper chelator in a gas permeable culture bag (static bioreactor); assay type: cell-based, human
Description: Hematopoietic stem/progenitor cells isolated from umbilical cord blood (UCB) mononuclear cells by magnetic activated cell sorting (MACS technology, Milteny, Bergisch-Gladbach, GmbH) were seeded in static bioreactors (gas permeable culture bags) at concentrations of 1×10^4 cells/ml in MEM-alpha with 10% Fetal Calf Serum (FCS) containing 50 ng/ml of the following cytokines: SCF, TPO, Flt-3, IL-6, with (TEPA) or without (control) added copper chelator tetraethylenepentamine (TEPA, Aldrich, Milwaukee Wis., USA) (5 μM), and incubated for at least three weeks in a 5% CO2 humidified incubator. […] Cell Cultures of Human Hematopoietic Stem/Progenitor Cells: Human umbilical cord blood cells were obtained from umbilical cord blood after normal full-term delivery (informed consent was given). MPB, or BM were obtained from donations (informed consent was given). Samples were either used fresh or collected and frozen according to well known cord blood cryopreservation protocol (Rubinstein et al. 1995) within 24 h postpartum for UCB or according to common practice regarding MPB and BM. Prior to cryopreservation, blood was sedimented for 30 minutes on […] Starch (hydroxyethyl starch) to remove most RBC. Prior to their use, the cells were thawed in Dextran buffer (Sigma, St. Louis, Mo., USA) containing 2.5% human serum albumin (HSA) (Bayer Corp. Elkhart, Ind., USA) and processed as described herein below. Following thawing, where indicated, the leukocyte-rich fraction was harvested and layered on Ficoll-Hypaque gradient (1.077 g/mL; Sigma Inc, St Louis Mo., USA), and centrifuged at 400X g for 30 minutes. The mononuclear cell fraction in the interface layer was then collected, washed three times, and re-suspended in phosphate-buffered saline (PBS) (Biological Industries, Bet HaEmek, Israel) containing 0.5% human serum albumin (HSA) (Bayer Corp. Elkhart, Ind., USA). The CD133^+ cell fraction was purified as follows: Either the mononuclear cell fraction was subjected to two cycles of immuno-magnetic separation using the “MiniMACS CD133 stem cell isolation kit” (Miltenyi Biotec, Auburn, Calif.) or the unfractionated preparation was isolated on the CliniMACS device using CD133^+ CliniMACS (Miltenyi Biotec, Auburn, Calif.) reagent, accordingly, following the manufacturer's recommendations (in the latter, the Ficoll-Hypaque gradient stage was omitted). The purity of the CD133^+ population thus obtained was 80-95%, as evaluated by flow cytometry. […]

[2] = tested on: cord-blood-derived, bone marrow-derived, and peripheral blood derived stem and progenitor cells; details: grown without a feeder layer; cited from earlier work
[3] = tested on: Hematopoietic stem/progenitor cells isolated from umbilical cord blood; assay: Long Term Culture-Colony Forming Cell (LTC-CFC) assay of bag-cultured HSC; assay type: cell-based, human
Description: FIGS. 1A-1C are a graphic representation of the ex-vivo expansion and inhibition of differentiation of stem cells in a static bioreactor. Hematopoietic stem/progenitor cells isolated from umbilical cord blood (UCB) mononuclear cells by magnetic activated cell sorting (MACS technology, Milteny, Bergisch-Gladbach, GmbH) were seeded in static bioreactors (gas permeable culture bags) at concentrations of 1×10^4 cells/ml in MEM-alpha with 10% Fetal Calf Serum (FCS) containing 50 ng/ml of the following cytokines: SCF, TPO, Flt-3, IL-6, with (TEPA) or without (control) added copper chelator tetraethylenepentamine (TEPA, Aldrich, Milwaukee Wis., USA) (5 μM), and incubated for at least three weeks in a 5% CO2 humidified incubator. […] CFUc frequency was calculated as number of CFUc per number of cells.
Self-Renewal Potential Evaluations: The self-renewal potential of stem cells was determined in vitro by long-term colony formation. […] The resulting colonies were scored after two weeks of incubation at 37° C. in a humidified atmosphere of 5% CO2 in air. […]
Calculations: Ex vivo expansion of TNC, CD133, CD133+CD34− cells and CFUc are reported either as cumulative numbers; number of cells per ml multiply by the final culture volume, or as fold-expansion; cumulative numbers divided by initial seeding cell number. CFUc frequency is calculated as number of colonies divided by cell number. […]

[4] = static bioreactor (VueLife FEP Teflon bag), compared with cells cultured without TEPA

NCCNCCNCCNCCN [TEPA, tetraethylenepentamine]
fold expansion of immature subpopulations of HSC (CD34+/CD38− and CD34+/lin−) ([1]; 5 μM TEPA, three weeks, static bioreactor (culture bag), vs cytokines without TEPA): dramatically increases; also recorded: predominance of undifferentiated CD34^+/CD38^− and CD34^+/lin^−
fraction of self-renewing, undifferentiated cells ([1]; short and long term culture in a static bioreactor, compared with cytokine-only cultures): dramatically increased
population of ex-vivo cultured stem and/or progenitor cells [1, 4]: greatly expanded
fraction of CD34+ cell [2]: greatly enhanced
long-term clonability [2]: greatly enhanced
LTC-CFC numbers (colonogenic potential, CFUs) ([3]; 5 μM TEPA vs control cells grown with cytokines but not TEPA): at least one order of magnitude; also recorded: predominance of CFUs
functional characteristics (colonogenic potential) [3, 4]: superior
